Measured values from ChEMBL document CHEMBL4308841, “Synthesis, in vitro antiproliferative activity, and kinase inhibitory effects of pyrazole-containing diarylureas and diarylamides” (Eur J Med Chem, 2018).

Tests used:
[1] = tested on: K562; assay: Growth inhibition of human K562 cells incubated for 48 hrs by sulforhodamine B assay; assay type: functional, cell-based; conditions: K562, 48 h
[2] = tested on: NCI-H522; assay: Growth inhibition of human NCI-H522 cells incubated for 48 hrs by sulforhodamine B assay; assay type: functional, cell-based; conditions: NCI-H522, 48 h
[3] = tested on: COLO 205; assay: Growth inhibition of human COLO205 cells incubated for 48 hrs by sulforhodamine B assay; assay type: functional, cell-based; conditions: COLO 205, 48 h
[4] = tested on: SF-268; assay: Growth inhibition of human SF268 cells incubated for 48 hrs by sulforhodamine B assay; assay type: functional, cell-based; conditions: SF-268, 48 h
[5] = tested on: UACC-62; assay: Growth inhibition of human UACC62 cells incubated for 48 hrs by sulforhodamine B assay; assay type: functional, cell-based; conditions: UACC-62, 48 h
[6] = tested on: OVCAR-4; assay: Growth inhibition of human OVCAR4 cells incubated for 48 hrs by sulforhodamine B assay; assay type: functional, cell-based; conditions: OVCAR-4, 48 h
[7] = tested on: OVCAR-5; assay: Growth inhibition of human OVCAR5 cells incubated for 48 hrs by sulforhodamine B assay; assay type: functional, cell-based; conditions: OVCAR-5, 48 h
[8] = tested on: CCRF-CEM; assay: Growth inhibition of human CCRF-CEM cells assessed as cell growth at 0.01 uM incubated for 48 hrs by sulforhodamine B assay relative to control; assay type: functional; conditions: read-out: Activity
[9] = tested on: M14; assay: Growth inhibition of human M14 cells assessed as cell growth at 0.01 uM incubated for 48 hrs by sulforhodamine B assay relative to control; assay type: functional; conditions: M14, 48 h, read-out: Activity
[10] = tested on: UACC-62; assay: Growth inhibition of human UACC62 cells assessed as cell growth at 0.01 uM incubated for 48 hrs by sulforhodamine B assay relative to control; assay type: functional; conditions: UACC-62, 48 h, read-out: Activity
[11] = tested on: PC-3; assay: Growth inhibition of human PC3 cells assessed as cell growth at 0.01 uM incubated for 48 hrs by sulforhodamine B assay relative to control; assay type: functional; conditions: PC-3, 48 h, read-out: Activity
[12] = tested on: BT-549; assay: Growth inhibition of human BT549 cells assessed as cell growth at 0.01 uM incubated for 48 hrs by sulforhodamine B assay relative to control; assay type: functional; conditions: BT-549, 48 h, read-out: Activity
[13] = tested on: RPMI-8226; assay: Growth inhibition of human RPMI8226 cells assessed as cell growth at 0.1 uM incubated for 48 hrs by sulforhodamine B assay relative to control; assay type: functional; conditions: RPMI-8226, 48 h, read-out: Activity
[14] = tested on: U-251; assay: Growth inhibition of human U251 cells assessed as cell growth at 0.1 uM incubated for 48 hrs by sulforhodamine B assay relative to control; assay type: functional; conditions: U-251, 48 h, read-out: Activity
[15] = tested on: LOX IMVI; assay: Growth inhibition of human LOXIMVI cells assessed as cell growth at 0.1 uM incubated for 48 hrs by sulforhodamine B assay relative to control; assay type: functional; conditions: read-out: Activity
[16] = tested on: Malme-3M; assay: Growth inhibition of human MALME-3M cells assessed as cell growth at 0.1 uM incubated for 48 hrs by sulforhodamine B assay relative to control; assay type: functional; conditions: read-out: Activity
[17] = tested on: SK-MEL-2; assay: Growth inhibition of human SK-MEL-2 cells assessed as cell growth at 0.1 uM incubated for 48 hrs by sulforhodamine B assay relative to control; assay type: functional; conditions: SK-MEL-2, 48 h, read-out: Activity
[18] = tested on: OVCAR-4; assay: Growth inhibition of human OVCAR4 cells assessed as cell growth at 0.1 uM incubated for 48 hrs by sulforhodamine B assay relative to control; assay type: functional; conditions: OVCAR-4, 48 h, read-out: Activity
[19] = tested on: KM12; assay: Growth inhibition of human KM12 cells assessed as cell growth at 1 uM incubated for 48 hrs by sulforhodamine B assay relative to control; assay type: functional; conditions: KM12, 48 h, read-out: Activity
[20] = tested on: IGROV-1; assay: Growth inhibition of human IGROV1 cells assessed as cell growth at 1 uM incubated for 48 hrs by sulforhodamine B assay relative to control; assay type: functional; conditions: IGROV-1, 48 h, read-out: Activity
[21] = tested on: OVCAR-8; assay: Growth inhibition of human OVCAR8 cells assessed as cell growth at 1 uM incubated for 48 hrs by sulforhodamine B assay relative to control; assay type: functional; conditions: OVCAR-8, 48 h, read-out: Activity
[22] = tested on: CCRF-CEM; assay: Growth inhibition of human CCRF-CEM cells assessed as cell growth at 100 uM incubated for 48 hrs by sulforhodamine B assay relative to control; assay type: functional; conditions: read-out: Activity
[23] = tested on: HCT-116; assay: Growth inhibition of human HCT116 cells assessed as cell growth at 100 uM incubated for 48 hrs by sulforhodamine B assay relative to control; assay type: functional; conditions: HCT-116, 48 h, read-out: Activity
[24] = tested on: SF-268; assay: Growth inhibition of human SF268 cells assessed as cell growth at 100 uM incubated for 48 hrs by sulforhodamine B assay relative to control; assay type: functional; conditions: SF-268, 48 h, read-out: Activity
[25] = tested on: SNB-19; assay: Growth inhibition of human SNB19 cells assessed as cell growth at 100 uM incubated for 48 hrs by sulforhodamine B assay relative to control; assay type: functional; conditions: SNB-19, 48 h, read-out: Activity
[26] = tested on: U-251; assay: Growth inhibition of human U251 cells assessed as cell growth at 100 uM incubated for 48 hrs by sulforhodamine B assay relative to control; assay type: functional; conditions: U-251, 48 h, read-out: Activity
[27] = tested on: SK-MEL-28; assay: Growth inhibition of human SK-MEL-28 cells assessed as cell growth at 100 uM incubated for 48 hrs by sulforhodamine B assay relative to control; assay type: functional; conditions: SK-MEL-28, 48 h, read-out: Activity
[28] = tested on: UACC-62; assay: Growth inhibition of human UACC62 cells assessed as cell growth at 100 uM incubated for 48 hrs by sulforhodamine B assay relative to control; assay type: functional; conditions: UACC-62, 48 h, read-out: Activity
[29] = tested on: OVCAR-5; assay: Growth inhibition of human OVCAR5 cells assessed as cell growth at 100 uM incubated for 48 hrs by sulforhodamine B assay relative to control; assay type: functional; conditions: OVCAR-5, 48 h, read-out: Activity
[30] = read-out: LC50 (the source's name)
[31] = read-out: pLC50 (the source's name) (converted)

Q: `O=C(Nc1cccc(-n2cc(-c3ccncc3)c(-c3cc(O)cc(Cl)c3)n2)c1)c1cc(C(F)(F)F)cc(C(F)(F)F)c1` was tested. Which GI50 ([1]; read-out: GI50) did it give?
A: 3.24 µM

Q: And the LC50 ([1]; read-out: LC50)?
A: > 100 µM

Q: What about the TGI ([1]; read-out: TGI) of the same molecule?
A: > 100 µM

Q: What about the GI50 ([1]; read-out: pGI50 (converted)) of the same molecule?
A: 3.24 µM

Q: What about the LC50 ([1]; read-out: pLC50 (converted)) of the same molecule?
A: > 100 µM

Q: And the TGI ([1]; read-out: pTGI (converted))?
A: > 100 µM

Q: And the GI50 ([2]; read-out: GI50)?
A: 1.5 µM

Q: What about the CC50 [2, 30] of the same molecule?
A: > 100 µM

Q: And the TGI ([2]; read-out: TGI)?
A: 83.7 µM

Q: And the GI50 ([2]; read-out: pGI50 (converted))?
A: 1.58 µM

Q: What about the CC50 [2, 31] of the same molecule?
A: > 100 µM

Q: And the TGI ([2]; read-out: pTGI (converted))?
A: 8.32 µM

Q: And the GI50 ([3]; read-out: GI50)?
A: 2.32 µM

Q: And the CC50 [3, 30]?
A: > 100 µM

Q: What about the TGI ([3]; read-out: TGI) of the same molecule?
A: 57.4 µM

Q: And the GI50 ([3]; read-out: pGI50 (converted))?
A: 2.34 µM

Q: What about the CC50 [3, 31] of the same molecule?
A: > 100 µM

Q: What about the TGI ([3]; read-out: pTGI (converted)) of the same molecule?
A: 5.75 µM

Q: And the GI50 ([4]; read-out: GI50)?
A: 6.38 µM

Q: And the CC50 [4, 30]?
A: > 100 µM

Q: And the TGI ([4]; read-out: TGI)?
A: > 100 µM

Q: And the GI50 ([4]; read-out: pGI50 (converted))?
A: 6.46 µM

Q: What about the CC50 [4, 31] of the same molecule?
A: > 100 µM

Q: What about the TGI ([4]; read-out: pTGI (converted)) of the same molecule?
A: > 100 µM

Q: And the IC50 [5]?
A: 3.79 µM

Q: What about the GI50 ([5]; read-out: GI50) of the same molecule?
A: 3.79 µM

Q: And the CC50 [5, 30]?
A: > 100 µM

Q: What about the TGI ([5]; read-out: TGI) of the same molecule?
A: 22.4 µM

Q: And the GI50 ([5]; read-out: pGI50 (converted))?
A: 3.8 µM

Q: What about the CC50 [5, 31] of the same molecule?
A: > 100 µM

Q: What about the TGI ([5]; read-out: pTGI (converted)) of the same molecule?
A: 28.2 µM

Q: What about the GI50 ([6]; read-out: GI50) of the same molecule?
A: 8.53 µM

Q: What about the CC50 [6, 30] of the same molecule?
A: > 100 µM

Q: What about the TGI ([6]; read-out: TGI) of the same molecule?
A: > 100 µM

Q: What about the GI50 ([6]; read-out: pGI50 (converted)) of the same molecule?
A: 8.51 µM

Q: What about the CC50 [6, 31] of the same molecule?
A: > 100 µM

Q: What about the TGI ([6]; read-out: pTGI (converted)) of the same molecule?
A: > 100 µM

Q: What about the GI50 ([7]; read-out: GI50) of the same molecule?
A: 8.23 µM

Q: And the CC50 [7, 30]?
A: > 100 µM

Q: And the TGI ([7]; read-out: TGI)?
A: 38.4 µM

Q: What about the GI50 ([7]; read-out: pGI50 (converted)) of the same molecule?
A: 8.32 µM

Q: And the CC50 [7, 31]?
A: > 100 µM

Q: What about the TGI ([7]; read-out: pTGI (converted)) of the same molecule?
A: 38 µM

Q: And the growth at 0.01 µM [8]?
A: 96%

Q: What about the growth at 0.01 µM [9] of the same molecule?
A: 100%

Q: What about the growth at 0.01 µM [10] of the same molecule?
A: 90%

Q: What about the growth at 0.01 µM [11] of the same molecule?
A: 95%

Q: What about the growth at 0.01 µM [12] of the same molecule?
A: 95%

Q: And the growth at 0.1 µM [13]?
A: 105%

Q: And the growth at 0.1 µM [14]?
A: 93%

Q: And the growth at 0.1 µM [15]?
A: 102%

Q: And the growth at 0.1 µM [16]?
A: 52%

Q: And the growth at 0.1 µM [17]?
A: 93%

Q: What about the growth at 0.1 µM [18] of the same molecule?
A: 104%

Q: What about the growth at 1 µM [19] of the same molecule?
A: 79%

Q: And the growth at 1 µM [20]?
A: 103%

Q: What about the growth at 1 µM [21] of the same molecule?
A: 91%

Q: And the growth at 100 µM [22]?
A: 1%

Q: And the growth at 100 µM [23]?
A: 5%

Q: And the growth at 100 µM [24]?
A: 31%

Q: And the growth at 100 µM [25]?
A: 34%

Q: And the growth at 100 µM [26]?
A: -28%

Q: What about the growth at 100 µM [27] of the same molecule?
A: -2%

Q: What about the growth at 100 µM [28] of the same molecule?
A: -35%

Q: And the growth at 100 µM [29]?
A: -32%
